# From the supplement of paper PMC10307832
# What was measured:
# Assay in all cases: relative viability (nuclei count vs DMSO), 5 days (fraction); higher = more cells survive
# NCI-H647 = test system: NCI-H647
# How it was run: (§1)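 Dosing by pin tool came one day after lung cancer cell lines were seeded in 1536-well plates, using either one drug or a fixed anchor-drug dose plus five library-drug doses (not always all listed) in √10 steps. After 5 days, nuclei were counted on 4× images. Relative viability is treated-well nuclei count divided by vehicle-well nuclei count, and values are medians of duplicate plates.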
# NCI-H322M = test system: NCI-H322M
# How it was run: as §1
# PC-3 [JPC-3] = test system: PC-3 [JPC-3]
# How it was run: as §1
# NCI-H1650 = test system: NCI-H1650
# How it was run: as §1
# LCLC-97TM1 = test system: LCLC-97TM1
# How it was run: as §1
# NCI-H23 = test system: NCI-H23
# How it was run: as §1
# NCI-H441 = test system: NCI-H441
# How it was run: as §1
# NCI-H1915 = test system: NCI-H1915
# How it was run: as §1
# NCI-H838 = test system: NCI-H838
# How it was run: as §1
# NCI-H727 = test system: NCI-H727
# How it was run: as §1
# SK-LU-1 = test system: SK-LU-1
# How it was run: as §1
# NCI-H661 = test system: NCI-H661
# How it was run: as §1
# NCI-H1792 = test system: NCI-H1792
# How it was run: as §1
# EKVX = test system: EKVX
# How it was run: as §1
# NCI-H1975 = test system: NCI-H1975
# How it was run: as §1
# NCI-H520 = test system: NCI-H520
# How it was run: as §1
# NCI-H1437 = test system: NCI-H1437
# How it was run: as §1
# NCI-H460 = test system: NCI-H460
# How it was run: as §1
# NCI-H1666 = test system: NCI-H1666
# How it was run: as §1
# NCI-H596 = test system: NCI-H596
# How it was run: as §1
smiles,measurement,setting,value
Nc1cccc2c1CN(C1CCC(=O)NC1=O)C2=O (stereo unspecified) [Lenalidomide] + CC(C)C[C@H](NC(=O)[C@H](Cc1ccccc1)NC(=O)c1cnccn1)B(O)O [Bortezomib] (partner 0.002 µM),relative viability,NCI-H647; first compound 0.253 µM,0.88
same,relative viability,NCI-H647; first compound 0.8 µM,0.9
same,relative viability,NCI-H647; first compound 2.53 µM,1.16
same,relative viability,NCI-H647; first compound 8 µM,0.772
same,relative viability,NCI-H322M; first compound 0.253 µM,1.18
same,relative viability,NCI-H322M; first compound 0.8 µM,1.21
same,relative viability,NCI-H322M; first compound 2.53 µM,1.31
same,relative viability,NCI-H322M; first compound 8 µM,1.17
same,relative viability,PC-3 [JPC-3]; first compound 0.253 µM,0.872
same,relative viability,PC-3 [JPC-3]; first compound 0.8 µM,0.535
same,relative viability,PC-3 [JPC-3]; first compound 2.53 µM,0.906
same,relative viability,PC-3 [JPC-3]; first compound 8 µM,0.99
same,relative viability,NCI-H1650; first compound 0.253 µM,0.197
same,relative viability,NCI-H1650; first compound 0.8 µM,0.189
same,relative viability,NCI-H1650; first compound 2.53 µM,0.213
same,relative viability,NCI-H1650; first compound 8 µM,0.198
same,relative viability,LCLC-97TM1; first compound 0.253 µM,0.673
same,relative viability,LCLC-97TM1; first compound 0.8 µM,0.514
same,relative viability,LCLC-97TM1; first compound 2.53 µM,0.705
same,relative viability,LCLC-97TM1; first compound 8 µM,0.416
same,relative viability,NCI-H23; first compound 0.253 µM,1.12
same,relative viability,NCI-H23; first compound 0.8 µM,1.03
same,relative viability,NCI-H23; first compound 2.53 µM,1.3
same,relative viability,NCI-H23; first compound 8 µM,0.9
same,relative viability,NCI-H441; first compound 0.253 µM,0.347
same,relative viability,NCI-H441; first compound 0.8 µM,0.383
same,relative viability,NCI-H441; first compound 2.53 µM,0.529
same,relative viability,NCI-H441; first compound 8 µM,0.485
same,relative viability,NCI-H1915; first compound 0.253 µM,0.985
same,relative viability,NCI-H1915; first compound 0.8 µM,0.69
same,relative viability,NCI-H1915; first compound 2.53 µM,1.06
same,relative viability,NCI-H1915; first compound 8 µM,0.952
same,relative viability,NCI-H838; first compound 0.253 µM,0.801
same,relative viability,NCI-H838; first compound 0.8 µM,0.887
same,relative viability,NCI-H838; first compound 2.53 µM,1.5
same,relative viability,NCI-H838; first compound 8 µM,0.446
same,relative viability,NCI-H727; first compound 0.253 µM,0.81
same,relative viability,NCI-H727; first compound 2.53 µM,1.05
same,relative viability,NCI-H727; first compound 8 µM,0.791
same,relative viability,SK-LU-1; first compound 0.253 µM,1.31
same,relative viability,SK-LU-1; first compound 0.8 µM,1.38
same,relative viability,SK-LU-1; first compound 2.53 µM,1.25
same,relative viability,SK-LU-1; first compound 8 µM,0.862
same,relative viability,NCI-H661; first compound 0.253 µM,0.7
same,relative viability,NCI-H661; first compound 0.8 µM,0.75
same,relative viability,NCI-H661; first compound 2.53 µM,0.794
same,relative viability,NCI-H661; first compound 8 µM,0.755
same,relative viability,NCI-H1792; first compound 0.253 µM,1
same,relative viability,NCI-H1792; first compound 0.8 µM,0.773
same,relative viability,NCI-H1792; first compound 2.53 µM,0.96
same,relative viability,NCI-H1792; first compound 8 µM,0.964
same,relative viability,EKVX; first compound 0.253 µM,1.04
same,relative viability,EKVX; first compound 0.8 µM,0.805
same,relative viability,EKVX; first compound 2.53 µM,1.17
same,relative viability,EKVX; first compound 8 µM,0.856
same,relative viability,NCI-H1975; first compound 0.253 µM,0.447
same,relative viability,NCI-H1975; first compound 0.8 µM,0.341
same,relative viability,NCI-H1975; first compound 2.53 µM,0.412
same,relative viability,NCI-H1975; first compound 8 µM,0.379
same,relative viability,NCI-H520; first compound 0.253 µM,0.529
same,relative viability,NCI-H520; first compound 0.8 µM,0.933
same,relative viability,NCI-H520; first compound 2.53 µM,0.984
same,relative viability,NCI-H520; first compound 8 µM,0.365
same,relative viability,NCI-H1437; first compound 0.253 µM,0.523
same,relative viability,NCI-H1437; first compound 0.8 µM,0.571
same,relative viability,NCI-H1437; first compound 2.53 µM,0.95
same,relative viability,NCI-H1437; first compound 8 µM,0.501
same,relative viability,NCI-H460; first compound 0.253 µM,1.16
same,relative viability,NCI-H460; first compound 0.8 µM,1.1
same,relative viability,NCI-H460; first compound 2.53 µM,1.7
same,relative viability,NCI-H460; first compound 8 µM,1.07
same,relative viability,NCI-H1666; first compound 0.253 µM,0.816
same,relative viability,NCI-H1666; first compound 0.8 µM,0.544
same,relative viability,NCI-H1666; first compound 2.53 µM,0.813
same,relative viability,NCI-H1666; first compound 8 µM,0.762
same,relative viability,NCI-H596; first compound 0.253 µM,0.933
same,relative viability,NCI-H596; first compound 0.8 µM,0.733
same,relative viability,NCI-H596; first compound 2.53 µM,1.39
same,relative viability,NCI-H596; first compound 8 µM,0.883
CN1CCN(CCOc2cc(OC3CCOCC3)c3c(Nc4c(Cl)ccc5c4OCO5)ncnc3c2)CC1 [Saracatinib] + CC(C)C[C@H](NC(=O)[C@H](Cc1ccccc1)NC(=O)c1cnccn1)B(O)O [Bortezomib] (partner 0.002 µM),relative viability,NCI-H647; first compound 0.02 µM,0.993
same,relative viability,NCI-H647; first compound 0.2 µM,0.677
same,relative viability,NCI-H647; first compound 0.6325 µM,0.757
same,relative viability,NCI-H647; first compound 2 µM,0.641
same,relative viability,NCI-H322M; first compound 0.02 µM,1.23
same,relative viability,NCI-H322M; first compound 0.2 µM,1.14
same,relative viability,NCI-H322M; first compound 0.6325 µM,1.23
same,relative viability,NCI-H322M; first compound 2 µM,0.988
same,relative viability,PC-3 [JPC-3]; first compound 0.02 µM,0.905
same,relative viability,PC-3 [JPC-3]; first compound 0.2 µM,0.721
same,relative viability,PC-3 [JPC-3]; first compound 0.6325 µM,0.778
same,relative viability,PC-3 [JPC-3]; first compound 2 µM,0.486
same,relative viability,NCI-H1650; first compound 0.02 µM,0.179
same,relative viability,NCI-H1650; first compound 0.2 µM,0.192
same,relative viability,NCI-H1650; first compound 0.6325 µM,0.24
same,relative viability,NCI-H1650; first compound 2 µM,0.206
same,relative viability,LCLC-97TM1; first compound 0.02 µM,0.786
same,relative viability,LCLC-97TM1; first compound 0.6325 µM,0.995
same,relative viability,LCLC-97TM1; first compound 2 µM,0.523
same,relative viability,NCI-H23; first compound 0.02 µM,1.09
same,relative viability,NCI-H23; first compound 0.6325 µM,0.95
same,relative viability,NCI-H23; first compound 2 µM,1.12
same,relative viability,NCI-H441; first compound 0.02 µM,0.451
same,relative viability,NCI-H441; first compound 0.2 µM,0.562
same,relative viability,NCI-H441; first compound 0.6325 µM,1.03
same,relative viability,NCI-H441; first compound 2 µM,0.831
same,relative viability,NCI-H1915; first compound 0.02 µM,0.959
same,relative viability,NCI-H1915; first compound 0.2 µM,0.813
same,relative viability,NCI-H1915; first compound 0.6325 µM,0.978
same,relative viability,NCI-H1915; first compound 2 µM,0.886
same,relative viability,NCI-H838; first compound 0.02 µM,0.78
same,relative viability,NCI-H838; first compound 0.2 µM,0.702
same,relative viability,NCI-H838; first compound 0.6325 µM,0.482
same,relative viability,NCI-H838; first compound 2 µM,0.431
same,relative viability,NCI-H727; first compound 0.02 µM,0.923
same,relative viability,NCI-H727; first compound 0.2 µM,0.535
same,relative viability,NCI-H727; first compound 0.6325 µM,1.09
same,relative viability,NCI-H727; first compound 2 µM,0.506
same,relative viability,SK-LU-1; first compound 0.02 µM,1.31
same,relative viability,SK-LU-1; first compound 0.2 µM,1.19
same,relative viability,SK-LU-1; first compound 0.6325 µM,0.829
same,relative viability,SK-LU-1; first compound 2 µM,0.735
same,relative viability,NCI-H661; first compound 0.02 µM,0.831
same,relative viability,NCI-H661; first compound 0.2 µM,0.849
same,relative viability,NCI-H661; first compound 0.6325 µM,0.837
same,relative viability,NCI-H661; first compound 2 µM,0.373
same,relative viability,NCI-H1792; first compound 0.02 µM,0.956
same,relative viability,NCI-H1792; first compound 0.2 µM,0.344
same,relative viability,NCI-H1792; first compound 0.6325 µM,1.06
same,relative viability,NCI-H1792; first compound 2 µM,0.914
same,relative viability,EKVX; first compound 0.02 µM,0.961
same,relative viability,EKVX; first compound 0.2 µM,0.861
same,relative viability,EKVX; first compound 0.6325 µM,1.16
same,relative viability,EKVX; first compound 2 µM,0.347
same,relative viability,NCI-H1975; first compound 0.02 µM,0.356
same,relative viability,NCI-H1975; first compound 0.6325 µM,0.443
same,relative viability,NCI-H1975; first compound 2 µM,0.331
same,relative viability,NCI-H520; first compound 0.02 µM,0.663
same,relative viability,NCI-H520; first compound 0.2 µM,0.431
same,relative viability,NCI-H520; first compound 0.6325 µM,0.289
same,relative viability,NCI-H520; first compound 2 µM,0.174
same,relative viability,NCI-H1437; first compound 0.02 µM,0.502
same,relative viability,NCI-H1437; first compound 0.2 µM,0.505
same,relative viability,NCI-H1437; first compound 0.6325 µM,0.437
same,relative viability,NCI-H1437; first compound 2 µM,0.453
same,relative viability,NCI-H460; first compound 0.02 µM,1.05
same,relative viability,NCI-H460; first compound 0.2 µM,0.51
same,relative viability,NCI-H460; first compound 0.6325 µM,1.12
same,relative viability,NCI-H460; first compound 2 µM,1.03
same,relative viability,NCI-H1666; first compound 0.02 µM,0.898
same,relative viability,NCI-H1666; first compound 0.2 µM,0.978
same,relative viability,NCI-H1666; first compound 0.6325 µM,1.07
same,relative viability,NCI-H1666; first compound 2 µM,1.06
same,relative viability,NCI-H596; first compound 0.02 µM,0.98
same,relative viability,NCI-H596; first compound 0.2 µM,0.999
same,relative viability,NCI-H596; first compound 0.6325 µM,1.01
same,relative viability,NCI-H596; first compound 2 µM,0.814
